{"source": "patent US10280465B2", "about": "“Biomarkers for predicting relapse in multiple sclerosis” (The United States of America as represented by the …, priority 2014, dated 2019)", "key": {"[1]": {"test_system": "EAE", "details": "cited from earlier work"}, "[2]": {"test_system": "activated T cells", "details": "Singh et al., 2007; cited from earlier work"}, "[3]": {"test_system": "CD8+ T cells from an MS patient", "assay": "Annexin V-FITC binding (early apoptosis) by FACS, CD8+ T cells from an MS patient", "format": "cell-based, human", "details": "sirtinol 200 μM, 24 h", "experimental": "(§1) PBMCs and Jurkat cells were plated in RPMI-10% FBS in 12-well plates 24 h prior to Annexin V FITC FACS analysis. Some of the cells were treated with sirtinol (200 μM) and the binding of Annexin V-FITC to cells was compared with that of cells exposed to vehicle (DMSO) only. Annexin V assay was performed according to manufacturer instructions (BD Biosciences) and only Annexin V FITC positive, propidium iodide negative cells were used in the evaluations since they are reflecting early apoptosis."}, "[4]": {"test_system": "FasL", "assay": "FasL expression by FACS analysis in PBMCs from a stable MS patient after sirtinol", "format": "cell-based, human", "details": "sirtinol 200 μM", "experimental": "FIGS. 8A-8D. Effect of SIRT 1 inhibition on FasL expression. PBMCs from a stable MS patient (FIG. 8A, FIG. 8C) were pretreated with the SIRT1 inhibitor sirtinol (200 μM) for 24 h (FIG. 8B, FIG. 8D), cultured with CD4^+ (FIG. 8B) or CD8^+ (FIG. 8D) T cells, and expression of FasL was then determined by FACS analysis."}, "[5]": {"test_system": "Jurkat cells", "assay": "Annexin V-FITC binding (early apoptosis) by FACS, Jurkat cells", "format": "cell-based", "details": "sirtinol 200 μM, 24 h", "experimental": "as §1"}, "[6]": {"test_system": "CD4+ T cells from an MS patient", "assay": "Annexin V-FITC binding (early apoptosis) by FACS, CD4+ T cells from an MS patient", "format": "cell-based, human", "details": "sirtinol 200 μM, 24 h", "experimental": "as §1"}, "[7]": {"test_system": "SIRT1 mRNA", "assay": "SIRT1 mRNA expression in PBMCs from stable MS patients after sirtinol", "format": "cell-based, human", "details": "sirtinol 200 μM, data not shown"}, "[8]": {"test_system": "RRMS", "assay": "Clinical response to glatiramer acetate in RRMS patients over 2 years", "format": "in vivo, human", "details": "15 RRMS patients, 20 mg subcutaneously every day for 2 years", "text": "A total of 15 patients with RRMS were enrolled in the study. The patients were recruited from the University of Maryland Multiple Sclerosis Center. The mean age was 40 (range, 22-60), and consisted of 60% females (n=9) and 40% males (n=6). The criteria for inclusion of MS patients in the study were: (i) age 18 to 65 years; (ii) fulfillment of the McDonald criteria for definite MS (McDonald et al., 2001; Polman et al., 2005); (iii) relapsing-remitting course; (iv) having newly diagnosed MS, or MS not treated with currently used immunomodulatory drugs (interferon-β or glatiramer acetate) for 3 months prior to study entry; (v) no exacerbations in the 4 weeks before the study; (vi) no i.v. or p.o. steroids for 4 weeks prior to study enrollment; (vii) no treatment with Tysabri, Gilenya, mitoxantrone, cyclophosphamide, or any investigational drug during the past year; and (viii) a disability score of 0-5.5, as defined by the expanded disability status scale (EDSS) (Kurtzke, 1983). […]\nAll MS patients received 20 mg of glatiramer acetate (GA) injected subcutaneously every day for 2 years. During this period of 2 years, patients were clinically evaluated and peripheral blood samples were collected at 0, 3, 6, and 12 months at the time of their outpatient visits. […]"}}, "note": "Entries after “also recorded” stand apart in the source; their conditions may differ."}
{"compound": "Oc1ccc(C=Cc2cc(O)cc(O)c2)cc1", "note": "[resveratrol]", "values": [{"measurement": "disease course in EAE", "setting": "[1]; Nimmagadda et al., 2013", "result": "ameliorates the disease course"}, {"measurement": "spinal cord inflammation during EAE", "setting": "[1]; Singh et al., 2007", "result": "decrease in spinal cord inflammation"}, {"measurement": "apoptosis in activated T cells", "setting": "[2]", "result": "trigger apoptosis"}]}
{"compound": "CC(NC(=O)c1ccccc1/N=C/c1c(O)ccc2ccccc12)c1ccccc1", "note": "(stereo not drawn) [sirtinol]", "values": [{"measurement": "Annexin V binding / apoptosis, in words", "setting": "[3]; CD8+ T cells from an MS patient", "result": "significant apoptosis; also recorded: significant increase in Annexin V binding"}, {"measurement": "apoptosis (Annexin V binding)", "setting": "[3]; CD8 cells, control cells 22%", "result": 81, "unit": "%"}, {"measurement": "FasL expression", "setting": "[4]; CD4+ T cells, 24 h", "result": "significant increase"}, {"measurement": "FasL expression", "setting": "[4]; CD8+ T cells, 24 h", "result": "significant increase"}, {"measurement": "FasL expression", "setting": "[4]; PBMCs from stable MS patients", "result": "significantly increased"}, {"measurement": "Annexin V binding / apoptosis, in words", "setting": "[5]", "result": "significant apoptosis; also recorded: significant increase in Annexin V binding"}, {"measurement": "cells binding Annexin V", "setting": "[5]; vehicle DMSO control 6%", "result": 65, "unit": "%"}, {"measurement": "Annexin V binding / apoptosis, in words", "setting": "[6]; CD4+ T cells from an MS patient", "result": "significant apoptosis; also recorded: significant increase in Annexin V binding"}, {"measurement": "apoptosis (Annexin V binding)", "setting": "[6]; CD4 cells, control cells 6%", "result": 55, "unit": "%"}, {"measurement": "inhibition of the expression of SIRT1 mRNA", "setting": "[7]", "result": 50, "unit": "%"}]}
{"compound": "glatiramer acetate [GA]", "values": [{"measurement": "non-responders (2 or more relapse events during the 2 year span)", "setting": "[8]", "result": 4}, {"measurement": "responders (0 or no more than 1 relapse event during the 2 year span)", "setting": "[8]", "result": 11}]}
